US10081660B2, “Polynucleotide, polypeptide with immunosuppressive activity, expression cassette, expression vector, host cell, pharmaceutical composition, methods for producing a polypeptide with immunosuppressive activity and for preventing or treating conditions that require immunosuppression, and use of a …” (FUNDAÇÃO BUTANTAN, priority 2013, dated 2018)
Ends that are not written are not given here.

T1: human fibrinogen (Homo sapiens, UniProt P02671+P02675+P02679)
T1 sequence (P02671 20-629 limits assumed): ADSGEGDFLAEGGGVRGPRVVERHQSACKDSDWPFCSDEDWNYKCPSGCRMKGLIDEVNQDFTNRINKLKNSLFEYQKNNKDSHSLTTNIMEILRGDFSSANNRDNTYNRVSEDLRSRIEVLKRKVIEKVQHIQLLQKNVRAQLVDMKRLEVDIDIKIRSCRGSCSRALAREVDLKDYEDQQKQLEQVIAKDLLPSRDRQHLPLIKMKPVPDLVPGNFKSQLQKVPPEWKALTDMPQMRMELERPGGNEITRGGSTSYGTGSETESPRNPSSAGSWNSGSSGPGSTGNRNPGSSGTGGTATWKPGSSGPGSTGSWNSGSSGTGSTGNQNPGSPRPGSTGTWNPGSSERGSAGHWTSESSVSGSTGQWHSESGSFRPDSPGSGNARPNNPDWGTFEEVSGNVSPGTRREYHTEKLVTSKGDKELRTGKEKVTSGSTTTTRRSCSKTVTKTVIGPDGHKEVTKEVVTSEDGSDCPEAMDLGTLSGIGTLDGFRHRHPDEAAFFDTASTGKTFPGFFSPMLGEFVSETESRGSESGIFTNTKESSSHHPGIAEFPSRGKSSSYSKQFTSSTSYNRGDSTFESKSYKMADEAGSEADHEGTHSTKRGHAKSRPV
T1 sequence (P02675 31-491): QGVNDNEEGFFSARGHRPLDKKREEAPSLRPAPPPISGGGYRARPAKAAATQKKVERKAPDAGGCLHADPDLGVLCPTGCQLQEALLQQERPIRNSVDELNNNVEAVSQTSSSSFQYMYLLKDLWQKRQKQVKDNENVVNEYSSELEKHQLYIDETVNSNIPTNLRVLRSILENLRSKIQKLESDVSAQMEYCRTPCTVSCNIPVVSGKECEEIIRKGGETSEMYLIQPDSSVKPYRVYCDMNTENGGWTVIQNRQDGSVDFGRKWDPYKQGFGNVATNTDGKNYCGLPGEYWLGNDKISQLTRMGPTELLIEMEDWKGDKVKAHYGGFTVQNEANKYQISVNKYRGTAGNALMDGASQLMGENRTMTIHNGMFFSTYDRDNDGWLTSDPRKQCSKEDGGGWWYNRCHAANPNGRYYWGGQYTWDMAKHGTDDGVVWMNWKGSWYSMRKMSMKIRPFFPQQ
T1 sequence (P02679 27-433 limits assumed): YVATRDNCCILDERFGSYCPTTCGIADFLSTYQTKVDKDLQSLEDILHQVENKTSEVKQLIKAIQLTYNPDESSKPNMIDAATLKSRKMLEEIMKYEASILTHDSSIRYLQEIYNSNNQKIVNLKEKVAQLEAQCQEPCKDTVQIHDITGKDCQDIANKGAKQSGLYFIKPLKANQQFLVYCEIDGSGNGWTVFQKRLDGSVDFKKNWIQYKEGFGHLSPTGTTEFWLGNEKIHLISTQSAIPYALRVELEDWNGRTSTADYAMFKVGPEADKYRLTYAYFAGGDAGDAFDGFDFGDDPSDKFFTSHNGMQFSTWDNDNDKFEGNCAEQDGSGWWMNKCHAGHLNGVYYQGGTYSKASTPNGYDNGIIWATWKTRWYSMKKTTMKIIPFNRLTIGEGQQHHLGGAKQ

B1: recombinant polypeptide: SEQ ID NO: 2 plus six histidine residues, T7 phage protein 10 portion and enterokinase site; approximately 30 kDa, expressed in E. coli (protein)
chain: MRGSHHHHHHGMASMTGGQQMGRDLYDDDDKDRWGSELFSQKYIELVVVADHGMFTKYNGNLNTIRTRVHEIVNTLNGFYRSLNIHISLTDLEIWSNQDLINVQSAAADTLKTFGEWRERVLLNRISHDNAQLLTAIDLADNTIGIAYTGGMCYPKNSVGIVQDHSPKTLLIAVTMAHELGHNLGMKHDENHCHCSASFCIMPPSLSEGPSYEFSDCSKDYYEMFLTKRKPQCILNKPWYHGIRSLIRLLTKPERKLSWLLPPLSNN

Assays:
HIII mice = assay: Immunosuppressive activity against soluble antigen (human gamma globulin, HGG), anti-HGG antibodies by ELISA; type: in vivo; conditions: for suppression of anti-HGG antibody production: single 3 μg dose intraperitoneally, HGG on Al(OH)3 after 24 hours
Description: The immunosuppressive activity can also be evaluated against a soluble antigen, such as human gamma globulin (HGG), adsorbed in aluminum hydroxide, and the antibodies titer determined by ELISA.
Titers were determined by ELISA and calculated considering the highest dilution of experimental sera whose O.D. (optical density) was five times higher than those obtained for normal serum at the same dilution.
The immunosuppressive activity of the synthetic polypeptide P2 (SEQ ID NO: 5) and P6 (SEQ ID NO: 9) was evaluated against HGG, taking into account immunosuppression time after preventive treatment and antigen inoculation. In all protocols, animals received a single dose of the tested polypeptides. In this experiment, the HIII mice (5 animals/group) were treated intraperitoneally with 3 μg of P6 or 3 μg of P2, and after 24 hours, were immunized intraperitoneally with HGG adsorbed on Al(OH)3 (10 μg/animal); The untreated group was used as a positive control receiving only HGG. […] The negative control was represented by a group called normal serum, i.e., serum from untreated and non-immunized animals. O.D. values obtained from the 1:500 dilution were presented herein as average+standard deviation and were statistically analyzed by Student t test. Values were considered significant when p<0.0001 (***); p<0.005 (**); p<0.05 (*) compared to the positive control, i.e., animals immunized only with HGG. Thus, the HIII mice groups received polypeptides SEQ ID NO: 22, P2 and P6.

Lineage HIII mice [1] = assay: Immunogenicity analysis: anti-polypeptide antibodies by ELISA after immunization; type: in vivo; conditions: intraperitoneal, bleeding seven days after immunization
Description: The immunogenicity is the capacity of a substance to induce an immune response. To evaluate the immunogenic potential of this invention's polypeptides, the antibody production is determined by the dosage of antibodies titer by ELISA after administration of the present invention polypeptides in potent adjuvants.
Anti-recombinant polypeptide antibodies were measured by ELISA. […] The reactions were developed by the addition of anti-mice-IgG conjugated to peroxidase (1: 7,500), followed by addition of OPD (o-Phenylenediamine dihydrochloride) and H2O2. The reading of the reactions was performed at λ492 nm on a plate spectrophotometer. The titer was established as the highest dilution of experimental sera which optical densities were three times higher than those obtained for normal serum at the same dilution. The data correspond to values obtained from two independent experiments. The significance between different groups (6 animals/group) was p<0.01.
One group was used as a positive control, receiving human gamma globulin (HGG). Bleeding was performed seven days after immunization and antibody production was assessed by ELISA.

[2] = test system: FRET substrate Abz-FRSSRQ EDDnp; assay: Proteolytic activity on extinguished fluorescence (FRET) substrate, spectrofluorometer; type: biochemical; conditions: 10 μg of polypeptide, fluorescence monitored for 1 hour
human fibrinogen = target: T1, human fibrinogen; assay: Fibrinogenolytic assay (SDS-PAGE); type: biochemical; conditions: 30 μg human fibrinogen, 5 μg polypeptide, 37° C. for 5 hours; whole L. muta venom as positive control
Description: (§1) Another possibility would be the verification of hydrolysis capacity in known substrates. The proteolytic enzymes of viperidae venoms have, for example, the capacity to hydrolyze the fibrinogen and the C3 component of the human complement system, and verifying this effect is a way of inquiring about the proteolytic activity.
To confirm the absence of enzymatic activity, one experiment was carried out a fibrinogenolytic assay. […] The samples were subjected to SDS-PAGE (10%) analysis under reducing conditions and the gel was stained with Coomassie blue.

[3] = target: C3 component of human complement system (Homo sapiens, UniProt P01024); assay: Cleavage of C3 component (SDS-PAGE); type: biochemical; conditions: 9 μg human C3, 5 μg polypeptide, 37° C. for 5 hours
Sequence of C3 component of human complement system (P01024 23-1663): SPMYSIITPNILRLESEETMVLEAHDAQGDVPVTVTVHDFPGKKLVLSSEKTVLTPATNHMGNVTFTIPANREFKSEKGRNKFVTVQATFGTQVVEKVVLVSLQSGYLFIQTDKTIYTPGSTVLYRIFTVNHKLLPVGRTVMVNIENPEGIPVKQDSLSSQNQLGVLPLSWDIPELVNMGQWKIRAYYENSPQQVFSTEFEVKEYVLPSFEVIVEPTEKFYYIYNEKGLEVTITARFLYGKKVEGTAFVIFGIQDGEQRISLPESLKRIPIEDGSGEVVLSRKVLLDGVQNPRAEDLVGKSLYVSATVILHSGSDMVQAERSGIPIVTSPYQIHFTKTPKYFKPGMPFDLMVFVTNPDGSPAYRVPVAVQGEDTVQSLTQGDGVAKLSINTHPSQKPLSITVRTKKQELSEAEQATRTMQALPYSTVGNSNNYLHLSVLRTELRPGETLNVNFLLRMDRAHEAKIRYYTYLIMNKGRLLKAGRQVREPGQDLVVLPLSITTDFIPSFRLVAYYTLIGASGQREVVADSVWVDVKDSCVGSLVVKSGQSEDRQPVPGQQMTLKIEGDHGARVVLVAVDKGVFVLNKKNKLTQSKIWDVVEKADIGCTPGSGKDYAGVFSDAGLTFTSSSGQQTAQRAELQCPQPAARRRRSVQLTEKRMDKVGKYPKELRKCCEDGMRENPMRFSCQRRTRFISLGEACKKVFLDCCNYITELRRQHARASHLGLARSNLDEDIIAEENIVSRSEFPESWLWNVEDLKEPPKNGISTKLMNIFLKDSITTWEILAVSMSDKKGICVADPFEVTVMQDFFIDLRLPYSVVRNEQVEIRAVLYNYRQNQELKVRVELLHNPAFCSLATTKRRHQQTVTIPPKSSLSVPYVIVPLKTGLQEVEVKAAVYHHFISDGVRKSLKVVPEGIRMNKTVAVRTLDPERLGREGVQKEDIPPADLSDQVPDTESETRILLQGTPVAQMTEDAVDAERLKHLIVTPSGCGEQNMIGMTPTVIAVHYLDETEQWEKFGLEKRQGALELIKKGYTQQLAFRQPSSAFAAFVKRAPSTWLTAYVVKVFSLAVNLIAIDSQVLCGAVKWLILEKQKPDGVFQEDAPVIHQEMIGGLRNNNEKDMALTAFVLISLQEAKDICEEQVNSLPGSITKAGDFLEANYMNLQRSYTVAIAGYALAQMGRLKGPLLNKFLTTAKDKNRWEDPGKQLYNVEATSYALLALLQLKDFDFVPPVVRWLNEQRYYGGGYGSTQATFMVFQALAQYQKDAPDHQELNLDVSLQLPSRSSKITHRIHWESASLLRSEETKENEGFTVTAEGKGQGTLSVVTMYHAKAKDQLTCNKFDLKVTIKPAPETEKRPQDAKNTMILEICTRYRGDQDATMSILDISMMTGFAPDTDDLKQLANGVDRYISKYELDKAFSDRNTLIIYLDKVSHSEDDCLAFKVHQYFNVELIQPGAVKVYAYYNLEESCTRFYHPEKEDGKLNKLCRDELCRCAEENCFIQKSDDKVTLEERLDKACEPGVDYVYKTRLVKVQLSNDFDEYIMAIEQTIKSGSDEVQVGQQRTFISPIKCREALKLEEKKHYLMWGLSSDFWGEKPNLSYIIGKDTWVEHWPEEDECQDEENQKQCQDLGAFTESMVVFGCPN
Source text: as §1
According to the caption on FIG. 14: (A) Human C3; (B) Human C3+venom; (C) Human C3+polypeptide. The samples were subjected to SDS-PAGE (10%) analysis under reducing conditions and the gel was stained with Coomassie blue.

BALB/c mice = assay: Hemorrhagic activity, method of Kondo et al., intradermal injection; type: in vivo; conditions: 4 mg L. muta venom or 50 mg recombinant polypeptide, skin assessed after 2 hours
Description: (1960, Jpn. J. Med. Sci. Biol. 13: 43-52).
After 2 hours, the animals were euthanized and the skin removed to assess the presence of hemorrhage.

Lineage HIII mice [4] = assay: Immunosuppressive activity against particulate antigen (sheep erythrocytes), hemagglutination; type: in vivo; conditions: 50 μg intraperitoneally 72 hours before immunization with sheep erythrocytes, […] cells/animal
Description: For the invention's polypeptide immunosuppressive activity analysis, Lineage HIII mice constitutively known as good responder to of antibody production are inoculated, intraperitoneally, and immunized with structurally complex and highly immunogenic antigens, such as sheep erythrocytes, a particulate antigen. The animals' serum is then analyzed regarding its hemagglutination activity: the lower is the hemagglutinating effect; the higher is the immunosuppressive capacity of the evaluated compound. The immunosuppressive activity can also be evaluated against a soluble antigen, such as human gamma globulin (HGG), adsorbed in aluminum hydroxide, and the antibodies titer determined by ELISA.
An untreated group was used as positive control and received only E^S. Samples of 50 μL E^S (2% v/v) were incubated with 50 μL of the sera from immunized animals (serially diluted) in 96 U-bottom well plates for 8 hours at room temperature. As negative control, E^S were incubated with PBS only. Antibody titers were that ones whose higher serum dilutions promoted agglutination of erythrocytes. The data are representative of three independent experiments. The significance between different groups was p<0.01 (FIG. 16).

Molecule	suppression of anti-HGG antibody production (HIII mice; after 7 days)	suppression of anti-HGG antibody production (HIII mice; after 13 days)	suppression of anti-HGG antibody production (HIII mice; after 36 days)	immunogenicity (production of antibodies against P6) (Lineage HIII mice [1]; P6 (3 mg))	inhibition of anti-HGG antibody production (HIII mice; P6 3 μg/animal or recombinant polypeptide 50 μg/animal, HGG in Al(OH)3 after 24 hours)	proteolytic activity on the FRET substrate [2]	hydrolysis of fibrinogen (human fibrinogen)	cleavage of C3 component [3]	hemorrhagic activity (BALB/c mice)	immunogenic potential (production of specific anti-recombinant polypeptide antibodies) (Lineage HIII mice [1]; 50 μg)	hemagglutination by serum of treated animals (antibody response to sheep erythrocytes) (Lineage HIII mice [4])
AIDLADNTIGIAYTGG [P2]	suppression of anti-HGG antibody production was induced	suppression of anti-HGG antibody production was induced	suppression of anti-HGG antibody production was induced	–	–	–	–	–	–	–	–
NAQLLTAID [P6]	suppression of anti-HGG antibody production was induced	suppression of anti-HGG antibody production was induced	suppression of anti-HGG antibody production was induced	did not show immunogenicity	inhibition of anti-HGG antibody production	–	–	–	–	–	–
B1	–	–	–	–	–	absence of recombinant polypeptide proteolytic activity	not able to hydrolyze fibrinogen	unable to cleave the C3 component	no hemorrhagic activity	very low or no immunogenic potential	unable to promote hemagglutination
